{"source": "patent US20200179369A1", "about": "“TREATMENT OF DIABETIC NEPHROPATHY” (TAKEDA GMBH, priority 2015, published 2020)", "assay_type_in_all_cases": "in vivo", "key": {"[1]": {"system": "uninephrectomized db/db mice", "experiment": "Diabetic nephropathy in uninephrectomized db/db mice, 8 week treatment starting 4 weeks after the uninephrectomy", "conditions": "8 weeks starting 4 weeks after uninephrectomy", "method": "Male 5-week-old BKS.Cg-+Lepr^db/+Lepr^db (db/db) mice were purchased from CLEA Japan, Inc. All mice were fed with a standard diet (CE-2, CLEA Japan, Inc.) and tap water ad libitum.\nCompound A was obtained from Takeda GmbH, Konstanz, Germany. Irbesartan was purchased from LKT Laboratories, Inc (USA).\nIn 6 week old male db/db mice an unilateral nephrectomy was performed. Under the anesthesia with isoflurane inhalation, the right kidney was removed from the mice. After 4-week recovery period, blood samples were obtained by the puncture of facial vein and blood level of glycosylated hemoglobin (GHb) was measured by automated HPLC-based GHb analyzer (HLC-723 G8, TOSOH, Japan). After the separation of plasma samples by centrifugation, also plasma levels of glucose (PG) were measured by Autoanalyzer 7180 (Hitachi, Japan). Urine samples were collected for a 8 h time-period using metabolic cages and urine creatinine level was measured by Autoanalyzer 7180. After desaltation of urine samples with PD MiniTrap G-25 column (GE healthcare, UK), urinary levels of albumin were measured by ELISA, and urinary albumin/creatinine ratio (UACR) was calculated.\nCompound A (1, 3 and 10 mg/kg, QD), roflumilast (3 mg/kg, QD) and irbesartan (50 mg/kg, QD) were suspended in 0.5% methyl cellulose solution and orally administered to mice for 8 weeks starting 4 weeks after the uninephrectomy.\nAt the end of the 8 weeks once daily administration blood, plasma and urine samples were obtained according to the same methods as described above. GHb, PG, urinary creatinine and albumin were measured and UACR was calculated. Body weight (BW) was measured every week during the treatment.\nFor evaluation of the effects of Compound A, statistical differences between vehicle- and Compound A treated groups were analyzed with two-tailed Williams' test for PG and BW and two-tailed Shirley-Williams' test for UACR and GHb. The P-values less than 0.05 were considered statistically significant in two-tailed Williams' test or Shirley-Williams' test.\nFor roflumilast and irbesartan, statistical differences between vehicle- and compounds-treated groups were analyzed with Student's t-test for GHb, PG and BW and Welch test for UACR. The P-values less than 0.05 were considered statistically significant in Student's t-test and Welch test."}, "[2]": {"system": "diet-induced obese (DIO) mice", "experiment": "Body weight, fat and lean mass, 4 weeks treatment in diet-induced obese (DIO) mice", "conditions": "for body weight change from pretreatment (Day 0): mean ±S.D.", "method": "Male C57BL/6J mice were obtained from CLEA Japan, Inc. The mice were fed High fat diet D12451 (Research diets, Inc) from 5 week to 54-week old and water ad libitum.\nAll mice were housed individually in animal cages and used for the study after 2 weeks of acclimation period. Animal groups (n=7) were treated with either vehicle (0.5 w/v % methylcellulose, p.o.) or Compound A (1 mg/kg or 3 mg/kg, p.o. suspension in 0.5w/v % methylcellulose solution) in the evening once a day for 4 weeks from 50 weeks of age. Body weight was measured 2 or 3 times per week. Regarding body composition fast mass and lean mass were measured.\nBody composition (fat mass and lean mass) was measured by Echo-MRI-900 (ALOKA Japan).\nAll data are presented as mean ±S.D. For evaluation of the effects of Compound A, statistical significances between vehicle (p.o.) and Compound A treated groups were analysed with one-tailed Williams' test or Shirley-Williams test when the variances among the groups were homogeneous or heterogeneous, respectively. The p-values less than 0.025 were considered statistically significant in one-tailed Williams' test or Shirley-Williams test. Body weight change from pretreatment (Day 0) was calculated using the following formula: [(BW−BW at Day 0)/BW at Day 0]×100."}, "female db/db mice": {"system": "female db/db mice", "experiment": "HbA1c, 4 weeks treatment in female db/db mice", "conditions": "28 days, vehicle 9.06%", "method": "Female db/db mice were purchased from Taconic (Lille Skensved, Denmark) at 5-6 weeks of age and were maintained under standard conditions (5 animals/cage; 12 h light-dark cycle; room temperature of 22±2° C.; relative humidity of 60±15%). All mice had free access to water and standard chow (Provimi Kliba, Kaiseraugst, Switzerland). Four days upon arrival animals were randomized based on body weight and levels of glycated hemoglobin 1c (HbA1c). At 7 weeks of age, animals were treated daily by oral gavage with vehicle (4% methylcellulose) or with Compound A (composed in aqueous 4% methylcellulose) using doses of 1, 3 and 10 mg/kg s.i.d. (doses related to free base). The required dose was applied in a volume of 10 ml/kg body weight. Each dose group consisted of 10 animals. At the end of the treatment period plasma samples were isolated for determination of HbA1c levels. All experimental procedures were conducted according to the German Animal Protection Law.\nHbA1c was analyzed from tail-tip-blood (HbA1c determination before treatment) as well as from blood collected from the retro-orbital venous plexus (HbA1c determination after 4 weeks treatment) using the Hemoglobin A1c Test (Siemens, Bad Nauheim, Germany).\nValues are presented as means ±SEM. Statistical differences were determined using one-way-ANOVA followed by a post-hoc analysis with Dunnet's correction (GraphPad Prism).\nDefinition of significance: n.s.=not significant (p>0.05) • *, **, ***=p<0.05, <0.01, <0.001"}}, "data": [{"smiles": "CCOc1cc2c(cc1OC)C(c1ccc(=O)n(C)c1)=N[C@@H]1CC[C@@H](O)C[C@H]21", "note": "[Compound A, 5-((2R,4aR,10bR)-9-Ethoxy-2-hydroxy-8-methoxy-1,2,3,4,4a,10b-hexahydro-phenanthridin-6-yl)1-methyl-1H-pyridin-2-one]", "values": [{"measurement": "effect on increase of urinary albumin/creatinine ratio (UACR)", "setting": "[1]; 1 mg/kg QD oral", "value": "significantly suppressed the increase of UACR"}, {"measurement": "effect on increase of urinary albumin/creatinine ratio (UACR)", "setting": "[1]; 3 mg/kg QD oral", "value": "almost completely inhibited the increase of UACR"}, {"measurement": "effect on body weight", "setting": "[1]; 10 mg/kg QD oral", "value": "slightly, but statistically significantly, suppressed the increase of body weight"}, {"measurement": "effect on increase of urinary albumin/creatinine ratio (UACR)", "setting": "[1]; 10 mg/kg QD oral", "value": "almost completely inhibited the increase of UACR"}, {"measurement": "effect on blood level of glycosylated hemoglobin (GHb)", "setting": "[1]; 1, 3 and 10 mg/kg QD oral", "value": "significantly inhibited the elevation of GHb and PG in a dose-dependent manner"}, {"measurement": "effect on plasma levels of glucose (PG)", "setting": "[1]; 1, 3 and 10 mg/kg QD oral", "value": "significantly inhibited the elevation of GHb and PG in a dose-dependent manner"}, {"measurement": "body weight reduction corrected with vehicle (p.o.)-treated body weight change", "setting": "[2]; 1 mg/kg p.o. once a day", "value": "−8.7±3.5", "unit": "%"}, {"measurement": "body weight change from pretreatment (Day 0)", "setting": "[2]; 1 mg/kg p.o. once a day", "value": "−4.9±3.5", "unit": "%"}, {"measurement": "body weight change from pretreatment (Day 0)", "setting": "[2]; 3 mg/kg p.o. once a day", "value": "−17.2±4.0", "unit": "%"}, {"measurement": "effect on fat mass", "setting": "[2]; 1 and 3 mg/kg p.o. once a day", "value": "dose dependently and significantly decreased fat mass"}, {"measurement": "effect on lean mass", "setting": "[2]; 1 and 3 mg/kg p.o. once a day", "value": "without affecting lean mass"}, {"measurement": "mean HbA1c", "setting": "female db/db mice; 1 mg/kg oral s.i.d.", "value": 7.27, "unit": "%"}, {"measurement": "mean HbA1c", "setting": "female db/db mice; 3 mg/kg oral s.i.d.", "value": 7.06, "unit": "%"}, {"measurement": "mean HbA1c", "setting": "female db/db mice; 10 mg/kg oral s.i.d.", "value": 6.16, "unit": "%"}]}]}
